Values joined by “and” are separate entries in the source; they are usually repeats but may differ in a detail not shown here. Identical values can stand only once.
Assay: molar heat capacity at constant pressure
Conditions: 101.33 kPa, Small sample (50 mg) DSC

O=[N+]([O-])[O-].O=[N+]([O-])[O-].O=[N+]([O-])[O-].O=[N+]([O-])[O-].[K+].[K+].[Mg+2] [bis-potassium magnesium nitrate]
Conditions	molar heat capacity at constant pressure
382 K, Crystal 2	376.3 J/K/mol
383 K, Crystal 2	377.7 J/K/mol
384 K, Crystal 2	379.1 J/K/mol
385 K, Crystal 2	380.8 J/K/mol
386 K, Crystal 2	381.9 J/K/mol
387 K, Crystal 2	382.2 J/K/mol
388 K, Crystal 2	382.6 J/K/mol
389 K, Crystal 2	385 J/K/mol
390 K, Crystal 2	386.8 J/K/mol
391 K, Crystal 2	388.2 J/K/mol
392 K, Crystal 2	389.6 J/K/mol
393 K, Crystal 2	391.3 J/K/mol
394 K, Crystal 2	393.8 J/K/mol
395 K, Crystal 2	395.2 J/K/mol
396 K, Crystal 2	397.6 J/K/mol
397 K, Crystal 2	399.7 J/K/mol
398 K, Crystal 2	401.5 J/K/mol
399 K, Crystal 2	403.2 J/K/mol
400 K, Crystal 2	405.3 J/K/mol
401 K, Crystal 2	409.5 J/K/mol
402 K, Crystal 2	412.7 J/K/mol
403 K, Crystal 2	422.1 J/K/mol and 428.4 J/K/mol
403.15 K, Crystal 2	428.4 J/K/mol
404 K, Crystal 2	811 J/K/mol
405 K, Crystal 1	1042.3 J/K/mol
406 K, Crystal 1	900.2 J/K/mol
407 K, Crystal 1	714.4 J/K/mol
408 K, Crystal 1	611.1 J/K/mol
409 K, Crystal 1	562.5 J/K/mol
410 K, Crystal 1	518 J/K/mol
411 K, Crystal 1	464.1 J/K/mol
412 K, Crystal 1	426.3 J/K/mol
413 K, Crystal 1	409.2 J/K/mol
414 K, Crystal 1	403.6 J/K/mol
415 K, Crystal 1	402.9 J/K/mol
415.15 K, Crystal 1	402.9 J/K/mol
416 K, Crystal 1	403.2 J/K/mol
417 K, Crystal 1	403.6 J/K/mol
418 K, Crystal 1	404.3 J/K/mol
419 K, Crystal 1	405.3 J/K/mol
420 K, Crystal 1	406.4 J/K/mol
421 K, Crystal 1	409.2 J/K/mol
422 K, Crystal 1	408.5 J/K/mol
423 K, Crystal 1	407.8 J/K/mol
424 K, Crystal 1	407.3 J/K/mol
425 K, Crystal 1	408.5 J/K/mol
426 K, Crystal 1	406.3 J/K/mol
427 K, Crystal 1	405.9 J/K/mol
428 K, Crystal 1	404.1 J/K/mol
429 K, Crystal 1	403.2 J/K/mol
430 K, Crystal 1	405 J/K/mol and 410 J/K/mol
431 K, Crystal 1	407.1 J/K/mol
432 K, Crystal 1	409.5 J/K/mol
433 K, Crystal 1	412.7 J/K/mol
434 K, Crystal 1	415.1 J/K/mol
435 K, Crystal 1	417.2 J/K/mol
436 K, Crystal 1	419 J/K/mol
437 K, Crystal 1	417.6 J/K/mol
438 K, Crystal 1	420 J/K/mol
439 K, Crystal 1	421.4 J/K/mol
440 K, Crystal 1	425.3 J/K/mol
441 K, Crystal 1	427.7 J/K/mol
442 K, Crystal 1	429.8 J/K/mol
443 K, Crystal 1	431.6 J/K/mol
444 K, Crystal 1	434 J/K/mol
445 K, Crystal 1	436.5 J/K/mol
446 K, Crystal 1	438.9 J/K/mol
447 K, Crystal 1	441.4 J/K/mol
448 K, Crystal 1	444.5 J/K/mol
449 K, Crystal 1	449.1 J/K/mol
450 K, Crystal 1	451.5 J/K/mol
451 K, Crystal 1	454.3 J/K/mol
452 K, Crystal 1	458.9 J/K/mol
453 K, Crystal 1	463.4 J/K/mol
454 K, Crystal 1	469 J/K/mol
455 K, Crystal 1	476 J/K/mol
456 K, Crystal 1	484.1 J/K/mol
457 K, Crystal 1	494.9 J/K/mol
458 K, Crystal 1	508.9 J/K/mol and 511.7 J/K/mol
458.15 K, Crystal 1	511.7 J/K/mol
459 K, Crystal 1	532.4 J/K/mol
460 K, Crystal 1	561.4 J/K/mol

Source: the NIST ThermoML archive (doi:10.1016/j.tca.2011.12.010)
